Laboratory results taken from patent publication US8420640B2, “Methods of treating amyloid disease using analogs of 1-(4-nitrophenyl) piperazine” (Treventis Corporation, priority 2008, dated 2013).
One block for each molecule: values may come before it.

What was measured:
Aβ40 = target: T1, Aβ40 (Homo sapiens, UniProt P05067); assay: ThT functional Aβ 1-40 aggregation assay; assay type: biochemical; settings: for IC50: 20 μM Aβ, 20 mM Tris pH 7.4, 150 mM NaCl, 1% DMSO, 37° C.; for Ratio: potency with respect to the compound of Example 7, 1=potency of that compound
T1 construct: Compounds Showing Activity Observed in a ThT Functional Aβ 1-40 Aggregation Assay
T1 sequence (P05067 672-711 limits assumed): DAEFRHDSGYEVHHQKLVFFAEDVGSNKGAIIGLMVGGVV
Protocol: Aβ40 (1.0 mg) was pre-treated in a 1.5 mL microfuge tube with HFIP (1 mL) and sonicated for 20 min to disassemble any pre-formed Aβ aggregates. The HFIP was removed with a stream of argon and the Aβ dissolved in Tris base (5.8 mL, 20 mM, pH ˜10). The pH was adjusted to 7.4 with concentrated HCl (˜10 μL) and the solution filtered using a syringe filter (0.2 μm) before being used.
(§1) The kinetic ThT assay for Aβ aggregation is similar to that of Chalifour et al (Chalifour et al, 2003, J. Biol. Chem. 278:34874-81). Briefly, pre-treated Aβ40 (40 μM in 20 mM Tris, pH 7.4), was diluted with an equal volume of 8 μM ThT in Tris (20 mM, pH 7.4, 300 mM NaCl). Aliquots of Aβ/ThT (200 μL) were added to wells of a black polystyrene 96-well plate, followed by 2 μL of a compound in DMSO (variable concentration), or DMSO alone (controls). Incubations were performed in triplicate and were taken to contain 20 μM Aβ, various concentration of compound in 20 mM Tris, pH 7.4, 150 mM NaCl, 1% DMSO. Plates were covered with clear polystyrene lids and incubated at 37° C. in a Tecan Genios microplate reader. Fluorescence readings (λex=450 nm, λem=480 nm) were taken every 15 min., after first shaking at high intensity for 15 s and allowing to settle for 10 s before each reading. Active compounds attenuated the increase in fluorescence over time that occurred in controls. By repeating this procedure over several concentrations, a mean inhibitory concentration (IC50) was measured, as given in the table below. The column “A-syn” represents a similar procedure measuring inhibition of alpha-synuclein aggregation. The column “ratio” is a reproducible assessment of potency with respect to the compound of Example 7, in which 1=potency of that compound: […]

alpha-synuclein = alpha-synuclein (Homo sapiens, UniProt P37840); assay: alpha-synuclein aggregation inhibition (procedure similar to the ThT assay); assay type: biochemical; settings: inhibition of alpha-synuclein aggregation; read-out: A-syn (IC50/μM)
Protocol: as §1

SMILES: O=C(O)c1cccc(-c2ccc([N+](=O)[O-])c(NCc3ccccc3)c2)c1 [drawing 139]
IC50 (alpha-synuclein): 8 µM | IC50 (Aβ40): 1.47 µM | Ratio (Aβ40): 2.85

SMILES: O=C(c1ccccc1)N1CCN(c2cccc([N+](=O)[O-])c2)CC1 [drawing 132]
IC50 (Aβ40): 196 µM | Ratio (Aβ40): 0.04

SMILES: O=[N+]([O-])c1ccc(N2CCCCC2)cc1Nc1ccccc1
IC50 (Aβ40): > 100 µM

SMILES: O=C(Nc1ccccc1)C1CCN(c2ccc([N+](=O)[O-])c(NCc3ccccc3)c2)CC1
IC50 (Aβ40): 544 µM | Ratio (Aβ40): 0.05

SMILES: CCN(CC)C(=O)c1ccc(N2CCN(C(=O)c3ccccc3)CC2)cc1NCc1ccccc1
IC50 (Aβ40): 361 µM | Ratio (Aβ40): 0.05

SMILES: COc1ccc(C(=O)N2CCN(c3ccc([N+](=O)[O-])c(NCc4ccco4)c3)CC2)cc1OC
IC50 (Aβ40): > 20 µM

SMILES: CC(=O)N1CCN(c2ccc([N+](=O)[O-])c(NCc3ccccc3)c2)CC1
IC50 (Aβ40): 25.8 µM | Ratio (Aβ40): 0.58

SMILES: O=C(Nc1ccccc1)c1cccc(-c2ccc([N+](=O)[O-])c(NCc3ccccc3)c2)c1
IC50 (Aβ40): 5730 µM | Ratio (Aβ40): 0

SMILES: Nc1ccc(N2CCN(C(=O)c3ccccc3)CC2)cc1N(Cc1ccccc1)c1ccccc1
IC50 (Aβ40): 107 µM | Ratio (Aβ40): 0.35

SMILES: O=[N+]([O-])c1ccc(N2CCN(Cc3ccccc3)CC2)cc1Nc1ccccc1
IC50 (Aβ40): > 50 µM

SMILES: O=C(Nc1cc(N2CCN(C(=O)c3ccccc3)CC2)ccc1[N+](=O)[O-])c1ccccc1
IC50 (Aβ40): 178 µM | Ratio (Aβ40): 0.05

SMILES: O=C(NCc1ccccc1)c1cccc(-c2ccc([N+](=O)[O-])c(NCc3ccccc3)c2)c1
IC50 (Aβ40): 14900 µM | Ratio (Aβ40): 0

SMILES: Nc1ccc(N2CCN(C(=O)c3ccccc3)CC2)cc1Nc1ccccc1
IC50 (Aβ40): 1.9 µM | Ratio (Aβ40): 9.9

SMILES: CCOC(=O)C1CCN(c2ccc([N+](=O)[O-])cc2C(=O)c2ccc(Cl)cc2)CC1
IC50 (Aβ40): > 20 µM

The next lines start with the values.

IC50 (Aβ40): 975 µM | Ratio (Aβ40): 0.03
SMILES: O=C(NCc1ccccc1)C1CCN(c2ccc([N+](=O)[O-])c(NCc3ccccc3)c2)CC1

IC50 (Aβ40): 92 µM | Ratio (Aβ40): 0.34
SMILES: O=C(c1ccccc1)N1CCN(c2ccc([N+](=O)[O-])cc2Nc2ccccc2)CC1

IC50 (alpha-synuclein): 142 µM | IC50 (Aβ40): 2.5 µM | Ratio (Aβ40): 0.34
SMILES: CCCNc1cc(N2CCN(C(=O)c3ccccc3)CC2)ccc1[N+](=O)[O-] [drawing 105]

IC50 (Aβ40): 42 µM | Ratio (Aβ40): 0.11
SMILES: O=C(NCc1ccccc1)c1ccc(-c2ccc([N+](=O)[O-])c(NCc3ccccc3)c2)cc1

IC50 (alpha-synuclein): 10 µM | IC50 (Aβ40): 9.23 µM | Ratio (Aβ40): 2.3
SMILES: O=C(O)c1cccc(-c2ccc([N+](=O)[O-])c(Nc3ccccc3)c2)c1 [drawing 149]

IC50 (alpha-synuclein): 11.6 µM | IC50 (Aβ40): 9 µM | Ratio (Aβ40): 0.1
SMILES: CN1CCN(c2ccc([N+](=O)[O-])c(NCc3ccccc3)c2)CC1 [drawing 103]

IC50 (Aβ40): 54.4 µM | Ratio (Aβ40): 0.17
SMILES: O=C(c1ccccc1)N1CCN(c2ccc(NCCN3CCOCC3)c(Nc3ccccc3)c2)CC1

IC50 (alpha-synuclein): 4 µM | IC50 (Aβ40): 25 µM | Ratio (Aβ40): 0.88
SMILES: CN(C)c1cc(N2CCN(C(=O)c3ccccc3)CC2)ccc1[N+](=O)[O-]

IC50 (Aβ40): 21.7 µM | Ratio (Aβ40): 0.88
SMILES: O=C(O)C1CCCN(c2ccc([N+](=O)[O-])c(NCc3ccccc3)c2)C1 (stereo not shown)

IC50 (Aβ40): 189 µM | Ratio (Aβ40): 0.05
SMILES: O=C(O)c1ccc(N2CCN(C(=O)c3ccccc3)CC2)cc1NCc1ccccc1

IC50 (alpha-synuclein): 51 µM | IC50 (Aβ40): 10 to 20 µM | Ratio (Aβ40): 0.09
SMILES: O=C(c1ccccc1)N1CCN(c2ccc([N+](=O)[O-])c(NCc3ccccc3)c2)CC1

IC50 (Aβ40): 84 µM | Ratio (Aβ40): 0.11
SMILES: CN(C)C(=O)c1ccc(N2CCN(C(=O)c3ccccc3)CC2)cc1NCc1ccccc1

IC50 (Aβ40): > 50 µM
SMILES: O=C(c1ccccc1)N1CCN(c2ccc([N+](=O)[O-])c(Oc3ccccc3)c2)CC1

IC50 (Aβ40): 15.5 µM | Ratio (Aβ40): 0.65
SMILES: CN(c1ccccc1)c1cc(N2CCN(C(=O)c3ccccc3)CC2)ccc1N

IC50 (Aβ40): 265 µM | Ratio (Aβ40): 0.03
SMILES: NC(=O)c1ccc(N2CCN(C(=O)c3ccccc3)CC2)cc1NCc1ccccc1

IC50 (Aβ40): 217 µM | Ratio (Aβ40): 0.07
SMILES: O=C(Nc1ccccc1)c1ccc(-c2ccc([N+](=O)[O-])c(NCc3ccccc3)c2)cc1

IC50 (Aβ40): 4.03 µM
SMILES: CC(=O)N1CCN(c2ccc([N+](=O)[O-])c(N3CCc4ccccc4C3)c2)CC1

IC50 (Aβ40): 90 µM | Ratio (Aβ40): 0.1
SMILES: O=C(c1ccccc1)N1CCN(c2ccc(NCCO)c(Nc3ccccc3)c2)CC1

IC50 (Aβ40): > 20 µM
SMILES: O=C(c1cccs1)N1CCN(c2ccc([N+](=O)[O-])c(-n3nc(-c4ccccc4)c4ccccc4c3=O)c2)CC1

IC50 (Aβ40): 23 µM | Ratio (Aβ40): 0.89
SMILES: O=C(O)C1CCN(c2ccc([N+](=O)[O-])c(NCc3ccccc3)c2)CC1
